Measurements published in the NIST ThermoML archive (doi:10.1016/j.fluid.2009.07.010).

Assays:
[1] = xn = mol fraction of the nth substance listed; conditions: 298.15 K; for surface tension liquid-gas: Drop volume; for mass density: 101 kPa, Liquid, Vibrating tube method
[2] = for mass density: 298.1 K, 101.33 kPa, Liquid, Vibrating tube method; for surface tension liquid-gas: 298.15 K, Drop volume

CCn1cc[n+](C)c1.F[B-](F)(F)F [1-ethyl-3-methylimidazolium tetrafluoroborate] + O
[1]
Conditions	mass density [kg/m3]	surface tension liquid-gas [mN/m]
x1 = 0.004	1005.5	67.38
x1 = 0.0077	1013.2	65
x1 = 0.0123	1021.8	62.87
x1 = 0.0132	1023.4	61.91
x1 = 0.0288	1046.4	58.15
x1 = 0.0483	1068.2	57.31
x1 = 0.0709	1088.6	55.92
x1 = 0.102	1111.7	55.24
x1 = 0.1418	1135.8	54.43
x1 = 0.2141	1169.1	53.8
x1 = 0.2191	1171	–
x1 = 0.2894	–	54.15
x1 = 0.3118	1200.3	–
x1 = 0.4011	–	54.01
x1 = 0.4551	1230	–
x1 = 0.4987	1236.7	–
x1 = 0.5074	–	53.88
x1 = 0.5923	1248.6	–
x1 = 0.6018	–	53.73
x1 = 0.691	1258.5	–
x1 = 0.7534	–	53.51
x1 = 0.7774	1265.5	–
x1 = 0.9015	–	53.25
x1 = 1	1279.9	53.04

CCCCCCn1cc[n+](C)c1.F[B-](F)(F)F [1-hexyl-3-methylimidazolium tetrafluoroborate]
[2]
Conditions	mass density [kg/m3]	surface tension liquid-gas [mN/m]
–	1145.4	37.33

CCCCCCn1cc[n+](C)c1.F[B-](F)(F)F [1-hexyl-3-methylimidazolium tetrafluoroborate] + CCO
[1]
Conditions	mass density [kg/m3]	surface tension liquid-gas [mN/m]
x1 = 0.098	893.9	23.11
x1 = 0.1998	964.6	24.21
x1 = 0.3	1011.9	25.62
x1 = 0.3991	1046.1	27.09
x1 = 0.5079	1073.7	28.82
x1 = 0.6123	1095.5	30.74
x1 = 0.702	1108.8	32.47
x1 = 0.803	1123.9	34.22
x1 = 0.9	1134.7	35.75
x1 = 1	1145.5	37.33

CCCCCCn1cc[n+](C)c1.F[B-](F)(F)F [1-hexyl-3-methylimidazolium tetrafluoroborate] + O
[1]
Conditions	mass density [kg/m3]	surface tension liquid-gas [mN/m]
x1 = 0.3032	1115.8	37.93
x1 = 0.4059	1123.9	37.79
x1 = 0.5058	1129.2	37.65
x1 = 0.6061	1133.8	37.52
x1 = 0.7057	1137.4	37.4
x1 = 0.803	1140.3	37.35
x1 = 0.9002	1142.6	37.33
x1 = 1	1145.5	37.33

CCCCCCCC[n+]1ccn(C)c1.F[B-](F)(F)F [1-methyl-3-octylimidazolium tetrafluoroborate]
[2]
Conditions	mass density [kg/m3]	surface tension liquid-gas [mN/m]
–	1104.2	32.84

CCCCCCCC[n+]1ccn(C)c1.F[B-](F)(F)F [1-methyl-3-octylimidazolium tetrafluoroborate] + CCO
[1]
Conditions	mass density [kg/m3]	surface tension liquid-gas [mN/m]
x1 = 0.1012	893	23.33
x1 = 0.2034	957.9	24.7
x1 = 0.3	996.6	25.99
x1 = 0.4096	1026.4	27.28
x1 = 0.5125	1047.8	27.9
x1 = 0.6156	1065.2	28.88
x1 = 0.7207	1079.3	29.9
x1 = 0.815	1088.8	30.86
x1 = 0.9014	1095.6	31.84
x1 = 1	1104.2	32.82

CCO [ethanol]
[2]
Conditions	mass density [kg/m3]	surface tension liquid-gas [mN/m]
–	785.8	22

CCO [ethanol] + CCn1cc[n+](C)c1.F[B-](F)(F)F
[1], x2 = 0
Conditions	mass density [kg/m3]	surface tension liquid-gas [mN/m]
–	785.8	52.81

O [water]
Conditions	surface tension liquid-gas [mN/m]
[2]	71.35

O [water] + CCCCn1cc[n+](C)c1.F[B-](F)(F)F
Conditions	surface tension liquid-gas [mN/m]
[1], x2 = 0	71.35

O [water] + CCn1cc[n+](C)c1.F[B-](F)(F)F
Conditions	surface tension liquid-gas [mN/m]
[1], x2 = 0	71.35
